Assay results taken from ChEMBL document CHEMBL1687744, “Furanone at subinhibitory concentrations enhances staphylococcal biofilm formation by luxS repression” (Antimicrob Agents Chemother, 2009).
Converted amounts (≈) assume the structure as drawn. The source made the active and inactive calls. The rule behind the calls is not given here.

Legend:
[1] = system: Staphylococcus epidermidis; test: Antimicrobial activity against Staphylococcus epidermidis 047 by macrodilution method; assay type: functional
[2] = system: Staphylococcus epidermidis; test: Bactericidal activity against Staphylococcus epidermidis 1457 at >10 uM after 18 hrs by CFU count assay; assay type: functional, organism-based
Staphylococcus aureus [3] = test: Antimicrobial activity against Staphylococcus aureus Newman by macrodilution method; assay type: functional
Staphylococcus aureus [4] = test: Bactericidal activity against Staphylococcus aureus 113 at >10 uM after 18 hrs by CFU count assay; assay type: functional, organism-based
Pseudomonas aeruginosa [5] = test: Inhibition of biofilm formation of Pseudomonas aeruginosa PAO1 at 0.322 uM to 2.58 mM; assay type: functional, organism-based
Pseudomonas aeruginosa [6] = test: Antimicrobial activity against Pseudomonas aeruginosa PAO1 by macrodilution method; assay type: functional
Staphylococcus aureus [7] = test: Bactericidal activity against Staphylococcus aureus Newman at >10 uM after 18 hrs by CFU count assay; assay type: functional, organism-based
Bacillus subtilis [8] = test: Antimicrobial activity against Bacillus subtilis by macrodilution method; assay type: functional
Staphylococcus aureus [9] = test: Increase in biofilm formation in Staphylococcus aureus Newman after 18 hrs by crystal violet staining; assay type: functional, organism-based
[10] = system: Staphylococcus epidermidis; test: Bactericidal activity against Staphylococcus epidermidis 047 at >10 uM after 18 hrs by CFU count assay; assay type: functional, organism-based
[11] = system: Staphylococcus epidermidis; test: Antimicrobial activity against ica gene-deficient Staphylococcus epidermidis 1457 by macrodilution method; assay type: functional
[12] = system: Staphylococcus epidermidis; test: Induction of biofilm formation in Staphylococcus epidermidis 1457 at 0.1 times MIC to 0.2 X MIC after 18 hrs by crystal violet staining; assay type: functional, organism-based
[13] = system: Staphylococcus epidermidis; test: Bactericidal activity against ica gene-deficient Staphylococcus epidermidis 047 at >10 uM after 18 hrs by CFU count assay; assay type: functional, organism-based
Staphylococcus aureus [14] = test: Increase in biofilm formation in Staphylococcus aureus Newman by crystal violet staining; assay type: functional, organism-based
Staphylococcus aureus [15] = test: Antimicrobial activity against Staphylococcus aureus 113 by macrodilution method; assay type: functional
[16] = system: Staphylococcus epidermidis; test: Effect on agr quorum sensing system in Staphylococcus epidermidis 1457 assessed as RNA3 expression level at 2.5 to 20 uM; assay type: functional, organism-based
[17] = system: Staphylococcus epidermidis; test: Induction of biofilm formation in ica gene-deficient Staphylococcus epidermidis 1457 after 18 hrs by crystal violet staining; assay type: functional, organism-based
[18] = system: Staphylococcus epidermidis; test: Increase in biofilm formation in Staphylococcus epidermidis 047 at 0.1 times MIC to 0.2 X MIC after 18 hrs by crystal violet staining; assay type: functional, organism-based
[19] = system: Staphylococcus epidermidis; test: Effect on biofilm formation in luxS gene-deficient Staphylococcus epidermidis 1457 at >10 uM by crystal violet staining; assay type: functional, organism-based
Staphylococcus aureus [20] = test: Increase in biofilm formation in agr gene-deficient Staphylococcus aureus Newman by crystal violet staining; assay type: functional, organism-based
[21] = system: Staphylococcus epidermidis; test: Increase in polysaccharide intercellular adhesin in Staphylococcus epidermidis 1457 at 2.5 to 20 uM by ant-PIA staining; assay type: functional, organism-based
Bacillus subtilis [22] = test: Induction of biofilm formation in Bacillus subtilis after 18 hrs by crystal violet staining; assay type: functional, organism-based
[23] = system: Staphylococcus epidermidis; test: Antimicrobial activity against ica gene-deficient Staphylococcus epidermidis 047 by macrodilution method; assay type: functional
L929 [24] = test: Cytotoxicity against mouse L929 cells after 24 hrs at 28.4 +/- 8.4 uM by LDH release assay; assay type: cell-based; conditions: l929, 24 h
[25] = system: Staphylococcus epidermidis; test: Bactericidal activity against Staphylococcus epidermidis 1457 at >50 uM after 18 hrs by CFU count assay; assay type: functional, organism-based
[26] = system: Staphylococcus epidermidis; test: Reduction luxS mRNA level in Staphylococcus epidermidis 1457 at 20 uM; assay type: functional, organism-based
[27] = system: Staphylococcus epidermidis; test: Induction of biofilm formation in ica gene-deficient Staphylococcus epidermidis 047 after 18 hrs by crystal violet staining; assay type: functional, organism-based
Staphylococcus aureus [28] = test: Induction of biofilm formation in Staphylococcus aureus 113 after 18 hrs by crystal violet staining; assay type: functional, organism-based
[29] = system: Staphylococcus epidermidis; test: Antimicrobial activity against Staphylococcus epidermidis 1457 by macrodilution method; assay type: functional
[30] = system: Staphylococcus epidermidis; test: Bactericidal activity against ica gene-deficient Staphylococcus epidermidis 1457 at >10 uM after 18 hrs by CFU count assay; assay type: functional, organism-based
L929 [31] = test: Cytotoxicity against mouse L929 cells after 24 hrs at 38.35 +/- 15.0 uM by LDH release assay; assay type: cell-based; conditions: l929, 24 h
[32] = system: Staphylococcus epidermidis; test: Induction of biofilm formation in Staphylococcus epidermidis 1457 at 1 to 100 uM after 18 hrs by crystal violet staining; assay type: functional, organism-based
L929 [33] = test: Cytotoxicity against mouse L929 cells after 24 hrs at 12.1 +/- 5.7 uM by LDH release assay; assay type: cell-based; conditions: l929, 24 h
L929 [34] = test: Cytotoxicity against mouse L929 cells after 24 hrs at 18.6 +/- 12.3 uM by LDH release assay; assay type: cell-based; conditions: l929, 24 h

CCCCC1=C(Br)/C(=C/Br)OC1=O
MBC [1]: > 130 µM
MIC [1]: 50 µM (≈ 15.5 µg/mL)
Activity [2]: Active
MBC (Staphylococcus aureus [3]): > 130 µM
MIC (Staphylococcus aureus [3]): 15 µM (≈ 4.65 µg/mL)
Activity (Staphylococcus aureus [4]): Active
inhibition (Pseudomonas aeruginosa [5]): Active
MBC (Pseudomonas aeruginosa [6]): > 130 µM
MIC (Pseudomonas aeruginosa [6]): > 130 µM
Activity (Staphylococcus aureus [7]): Active
MBC (Bacillus subtilis [8]): 100 µM (≈ 31 µg/mL)
MIC (Bacillus subtilis [8]): 100 µM (≈ 31 µg/mL)
Activity (Staphylococcus aureus [9]): Active
Activity [10]: Active
MBC [11]: > 130 µM
MIC [11]: 65 µM (≈ 20.1 µg/mL)
Activity [12]: Active
Activity [13]: Active
Activity (Staphylococcus aureus [14]): Active
MBC (Staphylococcus aureus [15]): > 130 µM
MIC (Staphylococcus aureus [15]): 15 µM (≈ 4.65 µg/mL)
Activity [16]: inactive
Activity [17]: inactive
Activity [18]: Active
Activity [19]: inactive
Activity (Staphylococcus aureus [20]): Active
Activity [21]: Active
Activity (Bacillus subtilis [22]): inactive
MBC [23]: > 130 µM
MIC [23]: 30 µM (≈ 9.3 µg/mL)
Activity (L929 [24]): 30%
Activity [25]: Active
Activity [26]: Active
Activity [27]: inactive
Activity (Staphylococcus aureus [28]): inactive
MBC [29]: > 130 µM
MIC [29]: 50 µM (≈ 15.5 µg/mL)
Activity [30]: Active

C#CCOC(CCC)C1=C(Br)/C(=C/Br)OC1=O (configuration not stated)
Activity (L929 [31]): 30%
Activity [32]: inactive
Activity [25]: Active

CCCC(OCCOCCOCCN=[N+]=[N-])C1=C(Br)/C(=C/Br)OC1=O (configuration not stated)
Activity [32]: inactive
Activity [25]: Active
Activity (L929 [33]): 30%

CCCC(Br)C1=C(Br)/C(=C/Br)OC1=O (configuration not stated)
Activity (L929 [34]): 30%
Activity [32]: inactive
Activity [25]: Active
